“Also recorded” adds a separate entry of the source.
Columns and labels:
pituitary prolactinoma = details: patients; cited from earlier work
SD rats [1] = assay: Toxicity prediction (pre-experiment); assay type: in vivo; details: gavage 0.07 g/kg twice a day
Source text: (§1) 5 SPF-grade SD rats are randomly selected for toxicity prediction. Another 30 SPF-grade SD rats are randomly selected, wherein half are males, and half are females. After the purchase of the animals, the animals are adaptively fed for one week. The rats are fasted at the night before the experiment (without stopping the provision of water). During the experiment, the animals are randomly divided into 3 groups, which are the control group, the low-dose hordenine treatment group (0.035 g/kg), and the high-dose hordenine treatment group (0.07 g/kg).
7 mg/ml of hordenine solution (the theoretical maximum solubility of hordenine is 7 mg/ml) is used for pre-experiment to observe the survival of rats. 5 SPF-grade SD rats are randomly selected, and hordenine is administered by gavage at the maximum dose of 0.07 g/kg, twice a day, with an interval of no less than 4 hours, 1 day of administration, and 7 days of observation. The poisoning, death, and amounts of food and water consumed by the rats are daily observed and recorded. For rats that die during the experiment, they are immediately dissected to find the cause of death. After the completion of the experiment, all dying rats will be dissected to remove the heart, liver, spleen, lung and kidney for visual observation, and pathological sections of each organ are made to roughly determine the target organ of toxicity.

prolactin (PRL) = assay: ELISA of prolactin content in serum of rats with prolactinoma and adrenocorticotrophic hormone adenoma; assay type: in vivo, F344 rats (Rattus norvegicus); details: oral gavage 40, 20, 10 mg/kg once a day for 30 days; vs model group
Source text: (§2) 70 rats of the prolactinoma and adrenocorticotrophic hormone adenoma model as established in Step 1.1 “Establishment of Rattus norvegicus pituitary tumor model” and normal rats of the control group are used as samples.
(§3) The 70 F344 rats are randomly divided into the normal group, operation group, model group, positive drug group (bromocriptine positive drug group), high-dose hordenine group, medium-dose hordenine group, and low-dose hordenine group, […]. Except rats in the normal group and the operation group, rats in the other groups are all made into rats with prolactinoma and adrenocorticotrophic hormone adenoma.
(§4) Rats in the positive drug group are given an aqueous bromocriptine solution by gavage at a dose of 0.45 mg/kg. Rats in the high-, medium- and low-dose groups of an aqueous solution of hordenine are given an aqueous solution of hordenine by oral gavage at a dose of 40 mg/kg, 20 mg/kg, and 10 mg/kg, respectively. Rats in the normal group and the model group are given the same dose of distilled water. The administration is performed once a day for 30 days, and during this period of time, the rats are weighed every five days and the changes in body weight are recorded. […]
(§5) The contents of PRL and IL-β in the serum of rats in each group are determined by ELISA according to the procedures in the ELISA kit instructions.

IL-β = assay: ELISA of IL-β content in serum of rats with prolactinoma and adrenocorticotrophic hormone adenoma; assay type: in vivo, F344 rats (Rattus norvegicus); details: oral gavage 40, 20, 10 mg/kg once a day for 30 days; vs model group
Source text: as §2, §3, §4, §5

TLR4/NF-κB/MAPK pathway = assay: Western blot of pituitary protein expression in rats with prolactinoma and adrenocorticotrophic hormone adenoma; assay type: in vivo, F344 rats (Rattus norvegicus); details: once a day for 30 days by gavage; vs model group
Source text: as §2, §3
Rats in the positive drug group are given an aqueous bromocriptine solution by gavage at a dose of 0.45 mg/kg. Rats in the high-, medium- and low-dose groups of an aqueous solution of hordenine are given an aqueous solution of hordenine by oral gavage at a dose of 40 mg/kg, 20 mg/kg, and 10 mg/kg, respectively. Rats in the normal group and the model group are given the same dose of distilled water. The administration is performed once a day for 30 days, and during this period of time, the rats are weighed every five days and the changes in body weight are recorded.
Tissue extraction: The animals in each group are anesthetized, and the pituitary glands are removed as described in Section 2.2.2 of Part I, which are kept at −80° C. for later use.
The protein expression of TLR4/NF-κB/MAPK pathway in rats in the treatment groups after the administration of hordenine is determined by Western blotting detection. The effect of hordenine on the expression of various proteins in the pituitary glands of rats with prolactinoma and adrenocorticotrophic hormone adenoma as determined by Western blot detection on is shown in FIG. 16.

SD rats [2] = assay: Acute toxicity test (maximum dose method); assay type: in vivo; design: key to Inflammation score: 0: no or very little inflammation; 1: mild inflammation; 2: moderate inflammation; 3: severe inflammation; details: for ALB / ALP / ALT / AST / DBIL / TBA / TBIL / TP / γ-GT: serum
Source text: The experimental animals are 40 SPF-grade SD rats, provided by the Experimental Animal Center of China Three Gorges University (SCXK (E)) 2017-0012), wherein half are males, and half are females, each with a body weight of 150 g; the animal number is: No. 42010200001245, and the experimental unit license number is: SYXK (E) 2014-0080.
as §1
If no rats die in the pre-experiment, according to the acute toxicity test method, the maximum dose method is used, and hordenine is administered by gavage at a high dose of 0.07 g/kg and a low dose of 0.035 g/kg, respectively. The control group is given the same volume of saline. The administration is carried out twice a day (with an interval of no less than 4 hours) for 7 days, and the rats are fasted for 3 to 4 hours after the administration. The animals' immediate reactions are recorded, and the rats' appearance, behavior, activity, spirit, appetite, fur, breathing, weight, and the like, are carefully observed continuously for 14 days. The poisoning, death, and amounts of food and water consumed by the rats are recorded daily to determine the LD0 (0% mortality), LD100 (100% mortality) and the r value between the corresponding dose groups, and determine the LD50 (half lethal dose) value. For mice that die during the experiment, they should be dissected immediately to find the cause of their death. After the completion of the experiment, all survived rats are anesthetized by intraperitoneal injection of urethane, and immediately dissected to remove the heart, liver, spleen, lung, and kidney, which are observed with naked eyes for disease. And pathological sections of each organ are made: The tissues are fixed with a solution of 4% paraformaldehyde, conventionally sampled, dehydrated, embedded in paraffin, made into a slice (4 μm thick), stained with HE staining method, observed with an optical microscope, and photographed to roughly determine the target organs of toxicity. The serum of all experimental rats is used for the determination of routine blood biochemical indexes.

[3] = gavage 0.07 and 0.035 g/kg twice a day for 7 days
[4] = low-dose, high-dose vs control, P>0.05
[5] = high-dose group (0.07 g/kg), female
[6] = high-dose group (0.07 g/kg), male
[7] = low-dose group (0.035 g/kg), female
[8] = low-dose group (0.035 g/kg), male

CC(C)C[C@H]1C(=O)N2CCC[C@H]2[C@]2(O)O[C@](NC(=O)[C@@H]3C=C4c5cccc6[nH]c(Br)c(c56)C[C@H]4N(C)C3)(C(C)C)C(=O)N12 [bromocriptine]
side effects (pituitary prolactinoma): mainly gastrointestinal reactions

CN(C)CCc1ccc(O)cc1 [hordenine, 4-(2-dimethylaminoethyl)phenol]
time to recovery of reduced activity after treatment (SD rats [1]; 1 day): about 2 hours | death of rats within 7 days (SD rats [1]; 1 day of administration, 7 days of observation): no rats die | general clinical signs (SD rats [1]; 1 day, 7 days of observation): no other adverse reactions | expression of PRL in serum (ELISA) (prolactin (PRL)): significantly inhibit | expression of IL-β in serum (ELISA) (IL-β): significantly inhibit | expression of ATCH in pituitary glands (Western blot) (TLR4/NF-κB/MAPK pathway): significantly reduce | expression of MAPK12 in pituitary glands (Western blot) (TLR4/NF-κB/MAPK pathway): significantly reduce; also recorded: significantly down-regulated | expression of NF-kB protein in pituitary glands (TLR4/NF-κB/MAPK pathway): significantly down-regulated | expression of PRL in pituitary glands (Western blot) (TLR4/NF-κB/MAPK pathway): significantly reduce | expression of STAT3 protein in pituitary glands (TLR4/NF-κB/MAPK pathway): significantly down-regulated | expression of TLR4 in pituitary glands (Western blot) (TLR4/NF-κB/MAPK pathway): significantly reduce; also recorded: significantly down-regulated | expression of TNF-α in pituitary glands (Western blot) (TLR4/NF-κB/MAPK pathway): significantly reduce | expression of caspase-1 protein in pituitary glands (TLR4/NF-κB/MAPK pathway): significantly down-regulated | Inflammation score (SD rats [2]; Heart, female, high-dose group): 0 | Inflammation score (SD rats [2]; Heart, female, low-dose group): 0 | Inflammation score (SD rats [2]; Heart, male, high-dose group): 0 | Inflammation score (SD rats [2]; Heart, male, low-dose group): 0 | Inflammation score (SD rats [2]; Kidney, female, high-dose group): 0 | Inflammation score (SD rats [2]; Kidney, female, low-dose group): 0 | Inflammation score (SD rats [2]; Kidney, male, high-dose group): 1 | Inflammation score (SD rats [2]; Kidney, male, low-dose group): 0 | Inflammation score (SD rats [2]; Liver, female, high-dose group): 0 | Inflammation score (SD rats [2]; Liver, female, low-dose group): 0 | Inflammation score (SD rats [2]; Liver, male, high-dose group): 0 | Inflammation score (SD rats [2]; Liver, male, low-dose group): 0 | Inflammation score (SD rats [2]; Lung, female, high-dose group): 1 | Inflammation score (SD rats [2]; Lung, female, low-dose group): 0 | Inflammation score (SD rats [2]; Lung, male, high-dose group): 1 | Inflammation score (SD rats [2]; Lung, male, low-dose group): 0 | Inflammation score (SD rats [2]; Spleen, female, high-dose group): 1 | Inflammation score (SD rats [2]; Spleen, female, low-dose group): 0 | Inflammation score (SD rats [2]; Spleen, male, high-dose group): 1 | Inflammation score (SD rats [2]; Spleen, male, low-dose group): 0 | general clinical signs (SD rats [2]; [3]): no other adverse reactions | time to recovery of reduced activity after treatment (SD rats [2]; [3]): about 2 hours | death of rats (SD rats [2]; gavage 0.07 g/kg and 0.035 g/kg twice a day for 7 days): No rats die; also recorded: no Rattus norvegicus death | lethal dose (SD rats [2]; gavage, twice a day for 7 days): greater than 0.14 g/kg | inflammation in the liver, spleen, and kidneys (pathological slices and biochemical experiments) (SD rats [2]; high-dose group): slight inflammation | kidney pathology (SD rats [2]; high-dose group): topical renal tubule interstitial connective tissue of rats in the high-dose group is proliferated | liver pathology (hepatocytes) (SD rats [2]; high-dose group): extensive severe edema | lung pathology (SD rats [2]; high-dose group): proliferated alveolar epithelial cells, and the alveolar walls are thickened | spleen pathology (white pulp) (SD rats [2]; high-dose group): topical lymphocytes in the white pulp of the spleen tissue are reduced | tissue inflammatory response in the spleen, lung, and kidney (SD rats [2]; high-dose group): mild inflammatory response | kidney pathology (SD rats [2]; low-dose group): no obvious abnormality | liver pathology (hepatocytes) (SD rats [2]; low-dose group): extensive edema | lung pathology (SD rats [2]; low-dose group): a large number of proliferated alveolar epithelial cells | spleen pathology (white pulp) (SD rats [2]; low-dose group): A small amount of lymphocytes exhibit necrosis, apoptosis | tissue inflammatory response (SD rats [2]; low-dose group): no inflammatory response | liver function indexes (SD rats [2]; [4]): no significant influence | renal function (blood BUN and CREA) (SD rats [2]; [4]): no significant influence | body weight (SD rats [2]; one week after the treatment): physiological increase | ALB (SD rats [2]; [5]): 32.45 ± 1.61 g/L | ALP (SD rats [2]; [5]): 195.08 ± 92.02 U/L | ALT (SD rats [2]; [5]): 51.25 ± 4.84 U/L | AST (SD rats [2]; [5]): 141 ± 12.04 U/L | DBIL (SD rats [2]; [5]): 7.23 ± 1.72 µmol/L | TBA (SD rats [2]; [5]): 27.57 ± 12.2 µmol/L | TBIL (SD rats [2]; [5]): 13.4 ± 5.73 µmol/L | TP (SD rats [2]; [5]): 55.45 ± 2.31 g/L | γ-GT (SD rats [2]; [5]): 3.62 ± 1.97 U/L | ALB (SD rats [2]; [6]): 29.5 ± 1.05 g/L | ALP (SD rats [2]; [6]): 278.67 ± 38.64 U/L | ALT (SD rats [2]; [6]): 51.47 ± 6.19 U/L | AST (SD rats [2]; [6]): 147.02 ± 17.42 U/L | DBIL (SD rats [2]; [6]): 6.14 ± 0.86 µmol/L | TBA (SD rats [2]; [6]): 41.43 ± 10.19 µmol/L | TBIL (SD rats [2]; [6]): 10.08 ± 2.69 µmol/L | TP (SD rats [2]; [6]): 49.11 ± 2.17 g/L | γ-GT (SD rats [2]; [6]): 3.9 ± 2.10 U/L | ALB (SD rats [2]; [7]): 31.88 ± 1.02 g/L | ALP (SD rats [2]; [7]): 229.4 ± 70.39 U/L | ALT (SD rats [2]; [7]): 43.54 ± 3.84 U/L | AST (SD rats [2]; [7]): 146.92 ± 24.61 U/L | DBIL (SD rats [2]; [7]): 9.03 ± 5.05 µmol/L | TBA (SD rats [2]; [7]): 23.77 ± 6.9 µmol/L | TBIL (SD rats [2]; [7]): 11.67 ± 5.16 µmol/L | TP (SD rats [2]; [7]): 53.54 ± 1.24 g/L | γ-GT (SD rats [2]; [7]): 3.92 ± 1.78 U/L | ALB (SD rats [2]; [8]): 28.86 ± 0.55 g/L | ALP (SD rats [2]; [8]): 328.05 ± 53.25 U/L | ALT (SD rats [2]; [8]): 40.46 ± 5.55 U/L | AST (SD rats [2]; [8]): 116.65 ± 18.14 U/L | DBIL (SD rats [2]; [8]): 6.81 ± 2.83 µmol/L | TBA (SD rats [2]; [8]): 36.99 ± 10.95 µmol/L | TBIL (SD rats [2]; [8]): 10.64 ± 4.19 µmol/L | TP (SD rats [2]; [8]): 47.34 ± 1.99 g/L | γ-GT (SD rats [2]; [8]): 2.59 ± 1.84 U/L | pathological sections: toxicity to liver, spleen, lung and kidney (SD rats [2]; treatment groups): slight toxicity | physiological conditions, weight changes, behavioral activities vs control group (SD rats [2]; treatment groups): no significant differences
